Test results taken from patent US9249137B2, “Dicarboximide derivatives of berbamine, the preparation and use thereof” (HANGZHOU BENSHENG PHARMACEUTICAL CO., LTD., priority 2010, dated 2016).
Read-outs that look alike come from different tables or passages of the source.

Experiments:
[1] = test system: normal human peripheral blood leucocytes; conditions: concentration range 0.5 ug/mL to 10 ug/mL; cited from earlier work
[2] = test system: human leukemia Jurkat cells; conditions: cited from earlier work
[3] = test system: MGC 803 (human gastric cancer cell); assay: MTT growth inhibition of human solid tumor cells, 72 hours; assay type: cell-based; conditions: compared with berbamine itself
Description: (§1) Human solid tumor cell lines: HepG2 (human hepatocellular carcinoma, HCC), A549 (human lung cancer), MCF-7 (breast cancer), PANC-1 (pancreatic cancer), PC-3 (prostate cancer), MG63 (osteosarcomas), AGS (gastric cancer), Huh7 (human hepatoma cell), Becap37 (human breast cancer cell), Hela (human cervical cancer cell), RKO (human colon adenocarcinoma cell), SW620 (human colon adenocarcinoma cells), SW480 (human colon cancer cell), MGC 803 (human gastric cancer cell).
(§2) Obtaining 4000 well-growing human solid tumor cells and inoculating them into wells of a 96-well cell culture plate. The culture medium is DMEM High Glucose cell culture medium containing 10% fetal bovine serum. After adding the berbamine derivatives of different concentrations and mixing uniformly, the plate is placed in a carbon dioxide cell incubator (5% CO2) at 37° C. and incubated for 72 hours. Then the viable cell concentration is determined by the MTT method, and the cell viability (%) after drug treatment is calculated. In this experiment, the cell viability of control group (not treated with any compound) is set as 100%.

MCF-7 (breast cancer) = assay: as above; assay type: cell-based; conditions: compared with berbamine itself
Description: as §1, §2

[4] = test system: PANC-1 (pancreatic cancer); assay: as above; assay type: cell-based; conditions: compared with berbamine itself
Description: as §1, §2

MG63 (osteosarcomas) = assay: as above; assay type: cell-based; conditions: compared with berbamine itself
Description: as §1, §2

[5] = test system: HepG2 (human hepatocellular carcinoma, HCC); assay: as above; assay type: cell-based; conditions: compared with berbamine itself
Description: as §1, §2

[6] = test system: Becap37 (human breast cancer cell); assay: as above; assay type: cell-based; conditions: compared with berbamine itself
Description: as §1, §2

[7] = test system: RPMI8226 (multiple myeloma); assay: MTT growth inhibition of multiple myeloma cells, 72 hours; assay type: cell-based, human; conditions: compared with berbamine itself
Experimental: Multiple myeloma and lymphoma cell lines: U266 (multiple myeloma), RPMI8226 (multiple myeloma), and DOHH2 (lymphoma).
(§3) Obtaining 6000 well-growing aforesaid tumor cells and inoculating them into wells of a 96-well cell culture plate. The culture medium is the 1640 cell culture medium containing 10% fetal bovine serum. After adding the berbamine derivatives of different concentrations and mixing uniformly, the plate is placed in a carbon dioxide cell incubator (5% CO2) at 37° C. and incubated for 72 hours. Then the viable cell concentration is determined by the MTT method.

[8] = test system: human K562 leukemia cell line (chronic myeloid leukemia, CML); assay: MTT growth inhibition of leukemia cells, 72 hours; assay type: cell-based; conditions: compared with berbamine itself
Description: (§4) Leukemia cell lines: human K562 leukemia cell line (chronic myeloid leukemia, CML), K562/adr (drug-resistant chronic myeloid leukemia (CML), NB4 (acute promyelocytic leukemia, AML), Kasumi-1 (acute myeloid leukemia M2 type, AML-M2), Jurkat (acute lymphoblastic leukemia, ALL), H9 (acute lymphoblastic leukemia, ALL).
as §3, with “leukemia” for “aforesaid tumor”, “adding of” for “adding”

[9] = test system: K562/adr (drug-resistant chronic myeloid leukemia); assay: MTT growth inhibition of leukemia cells, 72 hours; assay type: cell-based, human; conditions: compared with berbamine itself
Description: as §4
as §3, with “leukemia” for “aforesaid tumor”, “adding of” for “adding”

CaM = CaM (Homo sapiens, UniProt P0DP23); conditions: relative to berbamine; cited from earlier work
[10] = test system: red cell membrane CaM-independent Ca^2++Mg^2+ ATPase; conditions: relative to berbamine; cited from earlier work

Molecule: COc1cc2c3cc1Oc1c(OC)c(OC)cc4c1[C@@H](Cc1ccc(O)c(c1)Oc1ccc(cc1)C[C@@H]3N(C)CC2)N(C)CC4 [BBM, 6,6′,7-trimethoxy-2,2′-dimethylberbaman-12-ol]
- cytotoxicity on normal human peripheral blood leucocytes [1]: no obvious cytotoxicity
- cell viability rate ([2]; drug concentration 0.5 ug/mL): 93.69%
- cell viability rate ([2]; drug concentration 10 ug/mL): 14.85%

Molecule: COc1cc2c3cc1Oc1c(OC)c(OC)cc4c1[C@@H](Cc1ccc(OCCCCCCCN5C(=O)c6ccccc6C5=O)c(c1)Oc1ccc(cc1)C[C@@H]3N(C)CC2)N(C)CC4 [BS-BE-003, 12-O-(7-(1,3-dioxo-isoindolin-2-yl)-heptyl)-berbamine]
- improvement of anti-MGC 803 (human gastric cancer cells) activity [3]: ~7 fold
- improvement of anti-MCF-7 (breast cancer) activity (MCF-7 (breast cancer)): ~6 fold
- improvement of anti-PANC-1 (pancreatic cancer) activity [4]: more than 6 fold
- improvement of anti-MG63 (osteosarcomas) activity (MG63 (osteosarcomas)): ~8 fold
- improvement of anti-HepG2 (human hepatocellular carcinoma, HCC) activity [5]: ~5 fold
- improvement of anti-Becap37 (human breast cancer cell) activity [6]: ~5 fold
- improvement of anti-RPMI8226 (multiple myeloma) cell activity [7]: ~6 fold
- improvement of anti-human K562 chronic myelogenous leukemia activity [8]: more than 5 fold
- improvement of anti-K562/adr (drug-resistant chronic myelogenous leukemia) activity [9]: more than 6 fold

Molecule: CCOCCCCOc1ccc2cc1Oc1ccc(cc1)C[C@H]1c3cc(c(OC)cc3CCN1C)Oc1c(OC)c(OC)cc3c1[C@@H](C2)N(C)CC3 [EBB, [O-(4-ethoxy)-butyl]-berbamine]
- specific coefficient as CaM antagonist, higher than that of berbamine (CaM): 6.5 fold

Molecule: O-Dansyl berbamine [DB]
- inhibitory activity on red cell membrane CaM-independent Ca^2++Mg^2+ ATPase, stronger than that of berbamine [10]: 25 fold
